In ChEMBL document CHEMBL1201862, “PubChem BioAssay data set” (2004):
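Compound exposure: 48 hours, 5 concentrations, 96-well plates. GI50 = concentration required for 50% inhibition of growth.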 Calls of active or inactive are those of the source. Rule as the data show it: active = GI50 up to about 1.1 µM and inactive = higher.

Legend:
Assay in all cases: inhibition of tumour cell growth, NCI panel, 48 h
[1] = tested on: HOP-62
[2] = tested on: DU-145
[3] = tested on: NCI-H23
[4] = tested on: OVCAR-4
[5] = tested on: HCC 2998
[6] = tested on: SW-620
[7] = tested on: OVCAR-5
[8] = tested on: K562
[9] = tested on: ACHN
[10] = tested on: CCRF-CEM
[11] = tested on: IGROV-1
[12] = tested on: Hs-578T
[13] = tested on: NCI-H460
[14] = tested on: SF-539
[15] = tested on: SN12C
[16] = tested on: RPMI-8226
[17] = tested on: SNB-19
[18] = tested on: SK-MEL-2
[19] = tested on: SF-295
[20] = tested on: PC-3
[21] = tested on: COLO 205
[22] = tested on: HOP-92
[23] = tested on: SF-268
[24] = tested on: MOLT-4
[25] = tested on: LOX IMVI
[26] = tested on: EKVX
[27] = tested on: MDA-MB-435
[28] = tested on: UACC-257
[29] = tested on: UACC-62
[30] = tested on: 786-0
[31] = tested on: A498
[32] = tested on: CAKI-1
[33] = tested on: MDA-MB-231
[34] = tested on: MCF7
[35] = tested on: MDA-N
[36] = tested on: HCT-116
[37] = tested on: HT-29
[38] = tested on: M14
[39] = tested on: A549
[40] = tested on: SK-OV-3
[41] = tested on: RXF 393
[42] = tested on: NCI-H522
[43] = tested on: U-251
[44] = tested on: SNB-75
[45] = tested on: OVCAR-8
[46] = tested on: NCI-H226
[47] = tested on: NCI/ADR-RES
[48] = tested on: SR
[49] = tested on: KM12
[50] = tested on: OVCAR-3
[51] = tested on: HCT-15
[52] = tested on: HL-60
[53] = tested on: BT-549
[54] = tested on: SK-MEL-5
[55] = tested on: UO-31
[56] = tested on: SK-MEL-28
[57] = tested on: TK-10
[58] = tested on: Malme-3M
[59] = tested on: T47D

For `CCOc1cc2c(cc1O)CC[C@@H]1[C@@H]2CC[C@]2(C)[C@@H](O)CC[C@@H]12`, the GI50 [1] was 0.0447 µM (active), the GI50 [2] was 0.0547 µM (active) and the GI50 [3] was 0.0667 µM (active). The GI50 [4] was 12.4 µM (inactive), the GI50 [5] was 0.532 µM (active) and the GI50 [6] was 0.0183 µM (active). The GI50 [7] was 10.8 µM (inactive), the GI50 [8] was < 0.0171 µM (active) and the GI50 [9] was 0.0123 µM (active). The GI50 [10] was 0.0274 µM (active), the GI50 [11] was 1.18 µM (inactive) and the GI50 [12] was 0.0306 µM (active). For the same compound, the GI50 [13] was 0.0228 µM (active), the GI50 [14] was 0.0158 µM (active) and the GI50 [15] was 0.0778 µM (active). The GI50 [16] was 0.0252 µM (active), the GI50 [17] was 0.0334 µM (active) and the GI50 [18] was 0.118 µM (active). For the same compound, the GI50 [19] was 0.138 µM (active), the GI50 [20] was 1.62 µM (inactive) and the GI50 [21] was 12.7 µM (inactive). The GI50 [22] was 0.0537 µM (active), the GI50 [23] was 0.0612 µM (active) and the GI50 [24] was 0.0401 µM (active). For the same compound, the GI50 [25] was 0.0179 µM (active), the GI50 [26] was 0.497 µM (active) and the GI50 [27] was 0.0112 µM (active). The GI50 [28] was < 0.01 µM (active), the GI50 [29] was 0.019 µM (active) and the GI50 [30] was 0.0301 µM (active). For the same compound, the GI50 [31] was 2.09 µM (inactive), the GI50 [32] was 0.0644 µM (active) and the GI50 [33] was 0.188 µM (active). The GI50 [34] was 0.0287 µM (active), the GI50 [35] was 0.0107 µM (active) and the GI50 [36] was 0.0234 µM (active). The GI50 [37] was 4.88 µM (inactive), the GI50 [38] was 0.0261 µM (active) and the GI50 [39] was 0.0378 µM (active). For the same compound, the GI50 [40] was 0.138 µM (active), the GI50 [41] was 0.0387 µM (active) and the GI50 [42] was < 0.0117 µM (active). The GI50 [43] was 0.0803 µM (active), the GI50 [44] was 0.0168 µM (active) and the GI50 [45] was 0.109 µM (active). For the same compound, the GI50 [46] was 0.423 µM (active), the GI50 [47] was 0.0173 µM (active) and the GI50 [48] was < 0.0192 µM (active). For the same compound, the GI50 [49] was 1.22 µM (inactive), the GI50 [50] was 0.0184 µM (active) and the GI50 [51] was < 0.0138 µM. The GI50 [52] was 0.014 µM (active), the GI50 [53] was 0.0125 µM (active) and the GI50 [54] was 0.0188 µM (active). For the same compound, the GI50 [55] was 0.256 µM (active) and the GI50 [56] was 0.443 µM (active).

`C(=N\CCCN1CCN(CCC/N=C/c2cccc3ccccc23)CC1)/c1cccc2ccccc12` was tested, and the GI50 [1] was > 100 µM (inactive), the GI50 [3] was 90.8 µM (inactive) and the GI50 [4] was > 100 µM (inactive). For the same compound, the GI50 [5] was > 100 µM (inactive), the GI50 [57] was 72.1 µM (inactive) and the GI50 [6] was 64.9 µM (inactive). For the same compound, the GI50 [7] was > 100 µM (inactive), the GI50 [8] was 26.4 µM (inactive) and the GI50 [9] was > 100 µM (inactive). The GI50 [10] was 52.7 µM (inactive), the GI50 [11] was > 100 µM (inactive) and the GI50 [12] was 18.8 µM (inactive). For the same compound, the GI50 [13] was > 100 µM (inactive), the GI50 [14] was > 100 µM (inactive) and the GI50 [15] was > 100 µM (inactive). The GI50 [16] was 36 µM (inactive), the GI50 [17] was 60.7 µM (inactive) and the GI50 [18] was > 100 µM (inactive). The GI50 [19] was 57.9 µM (inactive), the GI50 [20] was > 100 µM (inactive) and the GI50 [21] was > 100 µM (inactive). For the same compound, the GI50 [23] was > 100 µM (inactive), the GI50 [24] was 39.4 µM (inactive) and the GI50 [25] was 42.5 µM (inactive). The GI50 [26] was 71.8 µM (inactive), the GI50 [27] was 14.5 µM (inactive) and the GI50 [28] was > 100 µM (inactive). For the same compound, the GI50 [58] was > 100 µM (inactive), the GI50 [29] was 84.7 µM (inactive) and the GI50 [30] was > 100 µM (inactive). The GI50 [32] was > 100 µM (inactive), the GI50 [33] was > 100 µM (inactive) and the GI50 [35] was 20 µM (inactive). For the same compound, the GI50 [36] was 27.7 µM (inactive), the GI50 [37] was 45.3 µM (inactive) and the GI50 [38] was 8.99 µM (inactive). For the same compound, the GI50 [39] was > 100 µM (inactive), the GI50 [40] was > 100 µM (inactive) and the GI50 [41] was 10.8 µM (inactive). For the same compound, the GI50 [42] was > 100 µM (inactive), the GI50 [43] was 36.2 µM (inactive) and the GI50 [44] was 29.9 µM (inactive). The GI50 [45] was > 100 µM (inactive), the GI50 [46] was 48.6 µM (inactive) and the GI50 [47] was 38.8 µM (inactive). The GI50 [59] was > 100 µM (inactive), the GI50 [48] was 38 µM (inactive) and the GI50 [49] was > 100 µM (inactive). The GI50 [50] was > 100 µM (inactive), the GI50 [51] was 34.8 µM and the GI50 [53] was 22.8 µM (inactive). For the same compound, the GI50 [54] was > 10 µM (inactive), the GI50 [55] was 48.3 µM (inactive) and the GI50 [56] was 56.4 µM (inactive).
